Assay results as given in patent US20260364184A1, “COMPOUND BASED ON OXOISOINDOLINYL-SUBSTITUTED TETRAHYDROPYRIMIDINE-DIONE AND USE THEREOF” (GLUETACS THERAPEUTICS (SHANGHAI) CO., LTD., priority 2023, published 2026).
Blank lines part the entries; values can stand above or below the compound they belong to.

What was measured:
Type in all cases: cell-based
[1] = tested on: Human large cell immunoblastic lymphoma cell line SR; assay: Inhibition of SR cell proliferation (CellTiter luminescent viability); conditions: Table IA1, IRAK4 inhibitor-based, 96 hours, read-out: Inhibitory activity (IC50, nM) on tumor cell proliferation, SR
Outline: (§1)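 Cells are seeded in 96-well plates, cultured at 37 °C, 5% CO2, and treated next day with 5-fold serial compound dilutions (stock series from 2000 μM; 0.5 μL into 100 μL medium). Viability is read by CellTiter-Meiluncell luminescence after the set exposure, and IC50 is taken from growth-inhibition curves.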

[2] = tested on: Human gastric cancer cell line MGC803; assay: Inhibition of MGC803 tumor cell proliferation (CellTiter luminescent viability); conditions: Table IA1, IRAK4 inhibitor-based compounds; MGC803, 96 hours; read-out: Inhibitory activity (IC50, nM) on tumor cell proliferation, MGC803
Outline: as §1

AR = molecular target: T1, AR (Homo sapiens, UniProt P10275); assay: Western blot degradation of AR; conditions: LnCap Cell; 24 hours
T1 construct: expression of target proteins in cells; endogenous in cells
T1 sequence (P10275 1-920): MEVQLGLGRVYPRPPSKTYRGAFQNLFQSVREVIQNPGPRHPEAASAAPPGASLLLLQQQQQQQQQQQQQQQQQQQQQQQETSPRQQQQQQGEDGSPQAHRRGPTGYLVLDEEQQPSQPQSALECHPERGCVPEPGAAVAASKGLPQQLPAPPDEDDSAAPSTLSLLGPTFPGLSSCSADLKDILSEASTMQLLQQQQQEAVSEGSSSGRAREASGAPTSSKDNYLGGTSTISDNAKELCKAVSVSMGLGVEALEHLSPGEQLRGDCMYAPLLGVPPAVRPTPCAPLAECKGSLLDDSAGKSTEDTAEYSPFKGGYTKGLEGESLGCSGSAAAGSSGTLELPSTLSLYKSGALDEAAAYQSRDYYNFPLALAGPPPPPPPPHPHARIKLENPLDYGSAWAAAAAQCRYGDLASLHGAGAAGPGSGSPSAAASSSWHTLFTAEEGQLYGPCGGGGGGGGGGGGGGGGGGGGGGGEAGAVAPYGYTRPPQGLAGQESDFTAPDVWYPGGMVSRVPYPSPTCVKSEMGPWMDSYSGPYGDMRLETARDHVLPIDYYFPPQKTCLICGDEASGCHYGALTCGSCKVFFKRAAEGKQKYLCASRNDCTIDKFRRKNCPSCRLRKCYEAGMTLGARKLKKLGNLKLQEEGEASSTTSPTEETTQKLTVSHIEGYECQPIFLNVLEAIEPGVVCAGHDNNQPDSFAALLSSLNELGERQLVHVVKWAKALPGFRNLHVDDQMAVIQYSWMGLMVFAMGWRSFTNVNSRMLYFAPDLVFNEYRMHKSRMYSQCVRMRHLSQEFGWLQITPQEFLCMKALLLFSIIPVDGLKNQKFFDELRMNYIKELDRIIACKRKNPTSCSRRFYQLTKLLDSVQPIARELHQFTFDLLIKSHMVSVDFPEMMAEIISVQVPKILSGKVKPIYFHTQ
Outline: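 Cells treated with compound, lysed, and target protein detected by Western blot (SDS-PAGE, nitrocellulose transfer). DC50 taken as the concentration giving band grayscale half that of DMSO control, estimated by concentration-response fitting; remaining protein (%) from target band normalised to internal control band; degradation (%) = 1 − remaining.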

[3] = tested on: Human myeloid monocytic leukemia cell line (MV-4-11); assay: Inhibition of MV-4-11 cell proliferation (CellTiter luminescent viability); conditions: Homo sapiens, MV4-11, Table IA3, IRAK4 inhibitor-based, 96 hours; for inhibition at 0.01 µM: MV-4-11, 10 nM, read-out: Inhibition Rate at 10 nM (%); for inhibition at 0.5 µM: MV-4-11, 500 nM, read-out: Inhibition Rate at 500 nM (%)
Outline: as §1

[4] = tested on: Human Acute T Lymphoblastic Leukemia Cells (Molt-4); assay: Inhibition of Molt-4 cell proliferation (CellTiter luminescent viability); conditions: Homo sapiens, MOLT-4, 96 h, Table IA2, IRAK4 inhibitor-based, 96 hours; for inhibition at 0.01 µM: Molt-4, 10 nM, read-out: Inhibition Rate at 10 nM (%); for inhibition at 0.5 µM: Molt-4, 500 nM, read-out: Inhibition Rate at 500 nM (%)

- IC50 [1]: 500 to 1000 nM
- IC50 [2]: 100 to 300 nM
Structure (SMILES): O=C1CCN(N2Cc3cc(CN4CCC(n5cc(NC(=O)c6coc(-c7ccnc(NCC8CC8)c7)n6)c(C(F)F)n5)CC4)ccc3C2=O)C(=O)N1 [GT-04951, 2-(2-((cyclopropylmethyl)amino)pyridin-4-yl)-N-(3-(difluoromethyl)-1-(1-((2-(2,4-dioxotetrahydropyrimidin-1(2H)-yl)-1-oxoisoindolin-5-yl)methyl)piperidin-4-yl)-1H-pyrazol-4-yl) oxazole-4-carboxamide]

- Degradation of substrate protein AR (substrate protein remaining %) (AR): A (0%≤substrate protein remaining %≤80%)
Structure (SMILES): N#Cc1ccc(O[C@H]2CC[C@H](NC(=O)c3ccc(N4CCC(CN5CC6CCC5CN6c5ccc6c(c5)C(=O)N(N5CCC(=O)NC5=O)C6=O)CC4)nn3)CC2)cc1Cl (stereo partly drawn) [GT-05832, N-((1r,4r)-4-(3-chloro-4-cyanophenoxy)cyclohexyl)-6-(4-((5-(2-(2,4-dioxotetrahydropyrimidin-1(2H)-yl)-1,3-dioxoisoindolin-5-yl)-2,5-diazabicyclo[2.2.2]octan-2-yl)methyl)piperidin-1-yl)pyridazine-3-carboxamide]

Structure (SMILES): O=C1CCN(N2Cc3cc(CN4CCC(n5cc(NC(=O)c6cnn7ccc(N8CCOCC8)nc67)c(C(F)F)n5)CC4)ccc3C2=O)C(=O)N1 [GT-05749]
- inhibition at 0.01 µM [3]: 0 to 10%
- inhibition at 0.5 µM [3]: 80 to 100%
- inhibition at 0.01 µM [4]: 7 to 10%
- inhibition at 0.5 µM [4]: 60 to 80%

- IC50 [1]: 500 to 1000 nM
- IC50 [2]: 500 to 1000 nM
Structure (SMILES): O=C1CCN(N2Cc3cc(CN4CCC(n5cc(NC(=O)c6cnn7ccc(N8C[C@H]9C[C@@H]8CO9)nc67)c(C(F)F)n5)CC4)ccc3C2=O)C(=O)N1 [GT-05028, 5-((1R,4R)-2-oxa-5-azabicyclo[2.2.1]heptan-5-yl)-N-(3-(difluoromethyl)-1-(1-((2-(2,4-dioxotetrahydropyrimidin-1(2H)-yl)-1-oxoisoindolin-5-yl)methyl)piperidin-4-yl)-1H-pyrazol-4-yl)pyrazolo[1,5-a]pyrimidine-3-carboxamide]

- Degradation of substrate protein AR (substrate protein remaining %) (AR): A (0%≤substrate protein remaining %≤80%)
Structure (SMILES): N#Cc1ccc(O[C@H]2CC[C@H](NC(=O)c3ccc(N4CCC(CN5C[C@@H]6C[C@H]5CN6c5ccc6c(c5)C(=O)N(N5CCC(=O)NC5=O)C6=O)CC4)nn3)CC2)cc1Cl [GT-05226, N-((1r,4r)-4-(3-chloro-4-cyanophenoxy)cyclohexyl)-6-(4-(((1S,4S)-5-(2-(2,4-dioxotetrahydropyrimidin-1(2H)-yl)-1,3-dioxoisoindolin-5-yl)-2,5-diazabicyclo[2.2.1]heptan-2-yl)methyl)piperidin-1-yl)pyridazine-3-carboxamide]

- Degradation of substrate protein AR (substrate protein remaining %) (AR): A (0%≤substrate protein remaining %≤80%)
Structure (SMILES): CC1(C)[C@H](NC(=O)c2ccc(N3CCC(CN4CC5CCC4CN5c4ccc5c(c4)C(=O)N(N4CCC(=O)NC4=O)C5=O)CC3)nc2)C(C)(C)[C@H]1Oc1ccc(C#N)c(Cl)c1 (stereo partly drawn) [GT-05834, N-((1r,3r)-3-(3-chloro-4-cyanophenoxy)-2,2,4,4-tetramethylcyclobutyl)-6-(4-((5-(2-(2,4-dioxotetrahydropyrimidin-1(2H)-yl)-1,3-dioxoisoindolin-5-yl)-2,5-diazabicyclo[2.2.2]octan-2-yl)methyl)piperidin-1-yl)nicotinamide]

Structure (SMILES): O=C1CCN(N2C(=O)c3cccc(N4CCC(CN5CCC(n6cc(NC(=O)c7cnn8ccc(N9C[C@H]%10C[C@@H]9CO%10)nc78)c(C(F)F)n6)CC5)CC4)c3C2=O)C(=O)N1 [GT-05285, 5-((1R,4R)-2-oxa-5-azabicyclo[2.2.1]heptan-5-yl)-N-(3-(difluoromethyl)-1-(1-((1-(2-(2,4-dioxotetrahydropyrimidin-1(2H)-yl)-1,3-dioxoisoindolin-4-yl)piperidin-4-yl)methyl)piperidin-4-yl)-1H-pyrazol-4-yl)pyrazolo[1,5-a]pyrimidine-3-carboxamide]
- inhibition at 0.01 µM [3]: 45 to 50%
- inhibition at 0.5 µM [3]: 80 to 100%
- inhibition at 0.01 µM [4]: -5 to 0%
- inhibition at 0.5 µM [4]: 80 to 100%
